Test results as given in patent publication US4180655A, “Nitrosourea derivatives” (Suami; Tetsuo, priority 1974, dated 1979).

Test system: Leukemia L1210 cells
Assay: Chemotherapeutic effect of nitrosourea derivatives on leukemia L1210 in mice
Type: in vivo, mice (BDF1/BDF)
Source text: Chemotherapeutic effect of a variety of the nitrosourea derivatives of the formula I according to this invention on leukemia L1210 in mice were investigated by the following method and materials.
A--BDF1 mice (about 6 week-aged; body weight: 22±1 g); each experimental group was composed of 2 male mice.
B--BDF1 mice (about 7 week-aged; body weight: 21±2 g); each experimental group was composed of 3 male mice.
C--BDF mice (about 7 week-aged; body weight: 22±2 g); each experimental group was composed of 2 male mice.
D--BDF mice (about 6 week-aged; body weight: 21±2 g); each experimental group was composed of 3 male mice.
E--BDF1 mice (about six week-aged; body weight 20±1 g); each experimental group was composed of 3 female mice.
F--BDF1 mice (about six week-aged; body weight 21±1 g); each experimental group was composed of 3 male mice.
A--Leukemia L1210 cells (2.1×10^6 cells/ 0.05 ml/mouse) were intraperitoneally inoculated.
B--Leukemia L1210 cells (1.9×10^6 cells/0.05 ml/mouse) were intraperitoneally inoculated.
C--Leukemia L1210 cells (1.2×10^6 cells/0.05 ml/mouse) were intraperitoneally inoculated.
A--The test compound was dissolved in a physiological saline solution and administered intraperitoneally at a volume of 0.1 ml/mouse. The administration was made at once/day, from 24 hours after i.p. inoculation of L1210 cells, for 3 days. The effect of test compound was assessed by mean survival days of mice, percent increase in life-span, anatomical findings involving the volume of ascites.
B--The same as that used in A except that the drug administration was continued for 5 days.
C--The same as that used in A except that the test compound was suspended in 0.5% CMC solution and that the drug administration was continued for 5 days.
D--The same as that used in A except that the test compound was dissolved in distilled water for injection purposes.
The percentage increase in life-span (ILS) was calculated as follows:
Percentage increase in life-span (ILS)=T-C/C×100
T: The mean survival days of the treated animals.
C: The mean survival days of the untreated control.

[1] = 1 mg/kg i.p. once/day for 3 days (procedure A, saline)
[2] = 2 mg/kg i.p. once/day for 3 days (procedure A, saline)
[3] = 4 mg/kg i.p. once/day for 3 days (procedure A, saline)
[4] = 8 mg/kg i.p. once/day for 3 days (procedure A, saline)
[5] = 10 mg/kg i.p. once/day for 3 days (procedure A, saline)
[6] = Mus musculus, L1210, ip, 72 h, 1 mg/kg i.p. once/day for 3 days (procedure A, saline), read-out: Percentage increase in life-span (ILS)
[7] = Mus musculus, L1210, ip, 72 h, 2 mg/kg i.p. once/day for 3 days (procedure A, saline), read-out: Percentage increase in life-span (ILS)
[8] = Mus musculus, L1210, ip, 72 h, 4 mg/kg i.p. once/day for 3 days (procedure A, saline), read-out: Percentage increase in life-span (ILS)
[9] = Mus musculus, L1210, ip, 72 h, 8 mg/kg i.p. once/day for 3 days (procedure A, saline), read-out: Percentage increase in life-span (ILS)
[10] = 200 mg/kg i.p. once/day for 5 days (procedure B, saline)
[11] = 300 mg/kg i.p. once/day for 5 days (procedure B, saline)
[12] = Mus musculus, L1210, ip, 120 h, read-out: Percentage increase in life-span (ILS)
[13] = 0.5 mg/kg i.p. once/day for 3 days (procedure A, saline)
[14] = 16 mg/kg i.p. once/day for 3 days (procedure A, saline)

O=NN(CCCl)C(=O)N[C@@H]1O[C@H](CO)[C@H](O)[C@H](O)[C@H]1O [Compound 7, 1-(2-chloroethyl)-3-(β-D-galactopyranosyl)-1-nitrosourea]
Survival days, Treated (mean) [1]: 18.5 days
Volume of ascites, Treated [1]: 4.6
Survival days, Treated (mean) [2]: 14.7 days
Volume of ascites, Treated [2]: 0.8
Survival days, Treated (mean) [3]: > 47.0 days
Volume of ascites, Treated [3]: 0
Survival days, Treated (mean) [4]: > 47.0 days
Volume of ascites, Treated [4]: 0
Survival days, Treated (mean) [5]: 18.7 days
Volume of ascites, Treated [5]: 0
ILS at 1 mg/kg [6]: 98.9%
ILS at 2 mg/kg [7]: 58.1%
ILS at 4 mg/kg [8]: > 405%
ILS at 8 mg/kg [9]: > 405%
ILS at 10 mg/kg (Mus musculus, L1210, ip, 72 h, 10 mg/kg i.p. once/day for 3 days (procedure A, saline), read-out: Percentage increase in life-span (ILS)): 101%

CO[C@@H]1O[C@H](C)[C@@H](O)[C@H](O)[C@H]1NC(=O)N(C)N=O [Compound 6, Methyl 2,6-dideoxy-2-(N'-methyl-N-nitrosoureido)-βD-glucopyranoside]
Survival days, Treated (mean) [10]: 15.1 days
Volume of ascites, Treated [10]: 2.0
Survival days, Treated (mean) [11]: 13.0 days
Volume of ascites, Treated [11]: 0.3
ILS at 200 mg/kg [12]: 77.6%
ILS at 300 mg/kg [12]: 52.9%

O=NN(CCCl)C(=O)N[C@@H]1O[C@H](CO)[C@@H](O)[C@H](O)[C@@H]1O [Compound 2, 1-(2-chloroethyl)-3-(β-D-mannopyranosyl)-1-nitrosourea]
Survival days, Treated (mean) [13]: 13.0 days
Volume of ascites, Treated [13]: 3.0
Survival days, Treated (mean) [1]: 13.7 days
Volume of ascites, Treated [1]: 2.3
Survival days, Treated (mean) [2]: 14.7 days
Volume of ascites, Treated [2]: 1.2
Survival days, Treated (mean) [3]: 15.0 days
Volume of ascites, Treated [3]: 1.2
Survival days, Treated (mean) [4]: 18.3 days
Volume of ascites, Treated [4]: 0
ILS at 0.5 mg/kg (Mus musculus, L1210, ip, 72 h, 0.5 mg/kg i.p. once/day for 3 days (procedure A, saline), read-out: Percentage increase in life-span (ILS)): 44.4%
ILS at 1 mg/kg [6]: 51.9%
ILS at 2 mg/kg [7]: 63%
ILS at 4 mg/kg [8]: 66.7%
ILS at 8 mg/kg [9]: 103%

O=NN(CCCl)C(=O)N[C@H]1[C@H](O)CCC[C@@H]1O [Compound 4, 1-(2-chloroethyl)-3-(1,3/2N-dihydroxycyclohexyl)-1-nitrosourea]
Survival days, Treated (mean) [2]: 22.0 days
Volume of ascites, Treated [2]: 0.8
Survival days, Treated (mean) [3]: > 60.0 days
Volume of ascites, Treated [3]: 0
Survival days, Treated (mean) [4]: > 59.3 days
Volume of ascites, Treated [4]: 0
Survival days, Treated (mean) [14]: 13.0 days
Volume of ascites, Treated [14]: 0
ILS at 2 mg/kg [7]: 114%
ILS at 4 mg/kg [8]: > 482%
ILS at 8 mg/kg [9]: > 476%
ILS at 16 mg/kg (Mus musculus, L1210, ip, 72 h, 16 mg/kg i.p. once/day for 3 days (procedure A, saline), read-out: Percentage increase in life-span (ILS)): 26.2%
